Drawing on PubChem BioAssay (NCI), this text covers TGI and GI50 for eight molecules.

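Dose response: 5 concentrations. Exposure: 48 h. Format: 96-well plates. Endpoint: linear interpolation; highest concentration if not reached. GI50 is the concentration that inhibits growth by half. At the TGI there is no net growth.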 Where only a bound is given, the exact number is not on record here.

Some test systems named below: KM12 colon; K-562 leukemia; UO-31 renal; LOX IMVI melanoma; SF-539 CNS; SN12C renal; OVCAR-8 ovarian; COLO 205 colon; NCI-H522 lung; SW-620 colon.
Common to all, as to assay: DTP human tumour cell line panel, 48 h

Regarding `NC(=S)N/N=C(\CC1OC(=O)c2ccccc21)c1ccc(Cl)cc1` (stereo not given), the TGI (commonly the concentration giving total growth inhibition) with KM12 colon was 52 µM; with K-562 leukemia, over 100 µM; in the experiment with UO-31 renal, 84.9 µM; in the experiment with LOX IMVI melanoma, 62.8 µM; in the experiment on SF-539 CNS, 44.9 µM; with SN12C renal, over 100 µM. The TGI was 35.6 µM with OVCAR-8 ovarian, 98.8 µM in the experiment with COLO 205 colon, 63.8 µM in the experiment with NCI-H522 lung and over 100 µM in the experiment on SW-620 colon.
For `N.N.N.N.O=C([O-])CCl.O=C([O-])CCl.[Co+3].[O-][Cl+3]([O-])([O-])[O-]`, the GI50 with KM12 colon, in the experiment with K-562 leukemia, with UO-31 renal, with LOX IMVI melanoma, in the experiment with SF-539 CNS and with SN12C renal was over 100 µM in each case. The GI50 in the experiment with OVCAR-8 ovarian, in the experiment on COLO 205 colon, in the experiment on NCI-H522 lung and in the experiment on SW-620 colon was over 100 µM each time. For the same molecule, the concentration for total growth inhibition (TGI) in the experiment on KM12 colon, in the experiment with K-562 leukemia, in the experiment with UO-31 renal, in the experiment with LOX IMVI melanoma, with SF-539 CNS and in the experiment with SN12C renal was over 100 µM each time. In addition, the TGI with OVCAR-8 ovarian, in the experiment on COLO 205 colon, in the experiment with NCI-H522 lung and in the experiment on SW-620 colon was over 100 µM throughout.
Regarding `C/C=C(\C)C(=O)O[C@H]1C=CC(=O)O[C@H]1CCC(=O)[C@H](C)O`, the GI50 (as a rule, the concentration giving 50% growth inhibition) in the experiment on KM12 colon is 17.8 µM; in the experiment on K-562 leukemia it was 4.92 µM; with UO-31 renal, 15.9 µM; in the experiment on LOX IMVI melanoma it was 11.8 µM; with SF-539 CNS, 19.2 µM; in the experiment on SN12C renal, 18.5 µM. Moreover, the GI50 in the experiment with OVCAR-8 ovarian is 20.7 µM; with COLO 205 colon, 6.07 µM; in the experiment on NCI-H522 lung, 13.5 µM; with SW-620 colon, 4.9 µM. Besides, the TGI in the experiment with KM12 colon was 38.8 µM; in the experiment on K-562 leukemia, 22.2 µM; in the experiment on UO-31 renal it was 31.2 µM; with LOX IMVI melanoma, 27.4 µM; in the experiment on SF-539 CNS, 35.8 µM; in the experiment with SN12C renal it was 46.9 µM. For the same molecule, the TGI with OVCAR-8 ovarian is 52.8 µM; in the experiment on COLO 205 colon, 22.6 µM; in the experiment on NCI-H522 lung, 33.7 µM; with SW-620 colon, 16.2 µM.
Turning to `Nc1ccc([N+](=O)[O-])cc1N=C/C=C/c1ccccc1`, the GI50 with KM12 colon was 3.87 µM; with K-562 leukemia, 5.43 µM; in the experiment with UO-31 renal, 4.31 µM; in the experiment on LOX IMVI melanoma it was 3.98 µM; with SF-539 CNS, 21.7 µM; in the experiment with SN12C renal, 8.06 µM. Also, the GI50 in the experiment on OVCAR-8 ovarian was 23.5 µM; in the experiment with COLO 205 colon, 23 µM; in the experiment on NCI-H522 lung, 4.47 µM; in the experiment on SW-620 colon, 6.12 µM. For the same molecule, the TGI in the experiment on KM12 colon is 51.2 µM; in the experiment on K-562 leukemia, over 100 µM; in the experiment with UO-31 renal it was 71.4 µM; in the experiment with LOX IMVI melanoma, 80.7 µM; with SF-539 CNS it was over 100 µM; with SN12C renal it was over 100 µM. In addition, the TGI is over 100 µM with OVCAR-8 ovarian, over 100 µM with COLO 205 colon, 59 µM with NCI-H522 lung and over 100 µM with SW-620 colon.
With `COc1cccc(F)c1C(=O)c1cnc(NC2CCN(S(C)(=O)=O)CC2)nc1N`, the GI50 with KM12 colon is 2.02 µM; in the experiment on K-562 leukemia, 6.55 µM; in the experiment with UO-31 renal, 4.6 µM; in the experiment on LOX IMVI melanoma, 1.85 µM; in the experiment on SF-539 CNS, 3.68 µM; with SN12C renal, 5.08 µM. Besides, the GI50 in the experiment on OVCAR-8 ovarian is 4.08 µM; in the experiment with COLO 205 colon, 1.49 µM; in the experiment with NCI-H522 lung it was 7.87 µM; with SW-620 colon, 0.781 µM. Moreover, the TGI with KM12 colon was over 20.7 µM; with K-562 leukemia, over 25 µM; in the experiment with UO-31 renal, 21.9 µM; in the experiment on LOX IMVI melanoma it was over 25 µM; in the experiment with SF-539 CNS, 11.7 µM; in the experiment on SN12C renal, over 25 µM. The TGI in the experiment on OVCAR-8 ovarian is over 25 µM; in the experiment on COLO 205 colon, 5.69 µM; with NCI-H522 lung, over 23.7 µM; with SW-620 colon, over 18.1 µM.
For the molecule `Cn1c(I)c(C#CCO[Si](C)(C)C(C)(C)C)c(=O)[nH]c1=O`, the GI50 in the experiment on KM12 colon is 25.9 µM; in the experiment with K-562 leukemia it was 2.06 µM; in the experiment on UO-31 renal, 14.6 µM; with LOX IMVI melanoma it was 1.83 µM; in the experiment with SF-539 CNS, 16.9 µM; in the experiment on SN12C renal, 17.1 µM. The GI50 in the experiment with OVCAR-8 ovarian is 22.4 µM; with COLO 205 colon it was 6.41 µM; in the experiment with NCI-H522 lung, 1.8 µM; in the experiment with SW-620 colon, 1.96 µM. Also, the TGI is over 61.2 µM in the experiment with KM12 colon; 4.36 µM in the experiment on K-562 leukemia; 28.6 µM in the experiment on UO-31 renal; 4.42 µM in the experiment with LOX IMVI melanoma; 30.9 µM in the experiment with SF-539 CNS; 34.2 µM in the experiment with SN12C renal. Also, the TGI with OVCAR-8 ovarian came out at 51.7 µM; in the experiment on COLO 205 colon it was 20 µM; with NCI-H522 lung, 3.95 µM; in the experiment on SW-620 colon it was 4.14 µM.
In the case of `CCN(CC)CCC(CNc1ccnc2cc(Cl)ccc12)c1ccc(Cl)cc1` (stereo not given), the GI50 in the experiment on KM12 colon is 1.79 µM; in the experiment on K-562 leukemia it was 0.312 µM; in the experiment with UO-31 renal, 0.642 µM; in the experiment with LOX IMVI melanoma it was 1.02 µM; in the experiment on SF-539 CNS it was 1.25 µM; in the experiment on SN12C renal, 1.84 µM. Also, the GI50 in the experiment with OVCAR-8 ovarian was 1.86 µM; with COLO 205 colon it was 1.13 µM; in the experiment on NCI-H522 lung it was 0.608 µM; in the experiment on SW-620 colon, 1.48 µM. Moreover, the TGI is 4.44 µM with KM12 colon; 1.16 µM in the experiment with K-562 leukemia; 2.07 µM in the experiment with UO-31 renal; 2.38 µM in the experiment on LOX IMVI melanoma; 2.77 µM in the experiment on SF-539 CNS; 10.4 µM with SN12C renal. The TGI in the experiment on OVCAR-8 ovarian was found to be 4.79 µM; with COLO 205 colon it was 2.5 µM; in the experiment on NCI-H522 lung, 2.19 µM; with SW-620 colon, 3.39 µM.
Regarding `[N-]=[N+]=NC1(Cc2ccccc2)C(=O)c2cccc3c2N(CCC3)C1=O` (stereo not given), the TGI in the experiment with KM12 colon, in the experiment on K-562 leukemia, in the experiment with UO-31 renal, in the experiment with LOX IMVI melanoma, in the experiment on SF-539 CNS and with SN12C renal was over 100 µM throughout. In addition, the TGI in the experiment with OVCAR-8 ovarian, in the experiment on COLO 205 colon, with NCI-H522 lung and in the experiment on SW-620 colon was over 100 µM in each case.
